According to patent publication US7417156B2, “Orally active, antimalarial, anticancer, artemisinin-derived trioxane dimers” (Johns Hopkins University, priority 2002, dated 2008):
Read-outs that look alike come from different tables or passages of the source.

Tests used:
SK-MEL-28 = experiment: NCI 60 cell line panel screen (SRB); assay type: cell-based, human
60 cell line panel = assay type: cell-based
RPMI-8226 = experiment: NCI 60 cell line panel screen (SRB); assay type: cell-based, human
NCI-H322M = assay type: cell-based
SF-539 = experiment: NCI 60 cell line panel screen (SRB); assay type: cell-based, human
PC-3 = experiment: NCI 60 cell line panel screen (SRB); assay type: cell-based, human
CAKI-1 = experiment: NCI 60 cell line panel screen (SRB); assay type: cell-based, human
NCI/ADR-RES = experiment: NCI 60 cell line panel screen (SRB); assay type: cell-based, human
RXF 393 = experiment: NCI 60 cell line panel screen (SRB); assay type: cell-based, human
HOP-62 = experiment: NCI 60 cell line panel screen (SRB); assay type: cell-based, human
IGROVI = experiment: NCI 60 cell line panel screen (SRB); assay type: cell-based, human
HCT-116 = experiment: NCI 60 cell line panel screen (SRB); assay type: cell-based, human
NCI-H460 = experiment: NCI 60 cell line panel screen (SRB); assay type: cell-based, human
K-562 = experiment: NCI 60 cell line panel screen (SRB); assay type: cell-based, human
EKVX = experiment: NCI 60 cell line panel screen (SRB); assay type: cell-based, human
NCI-H23 = experiment: NCI 60 cell line panel screen (SRB); assay type: cell-based, human
OVCAR-3 = experiment: NCI 60 cell line panel screen (SRB); assay type: cell-based, human
ACHN = experiment: NCI 60 cell line panel screen (SRB); assay type: cell-based, human
[1] = tested on: chloroquine-sensitive P. falciparum (NF54); experiment: Antimalarial activity in vitro, [3H]hypoxanthine incorporation; assay type: cell-based
HT29 = experiment: NCI 60 cell line panel screen (SRB); assay type: cell-based, human
SNB-75 = experiment: NCI 60 cell line panel screen (SRB); assay type: cell-based, human
T-47D = experiment: NCI 60 cell line panel screen (SRB); assay type: cell-based, human; conditions: T-47D (Breast Cancer)
SNB-19 = experiment: NCI 60 cell line panel screen (SRB); assay type: cell-based, human
OVCAR-8 = experiment: NCI 60 cell line panel screen (SRB); assay type: cell-based, human
BT-549 = experiment: NCI 60 cell line panel screen (SRB); assay type: cell-based, human
HOP-92 = experiment: NCI 60 cell line panel screen (SRB); assay type: cell-based, human
SK-OV-3 = experiment: NCI 60 cell line panel screen (SRB); assay type: cell-based, human
UACC-257 = experiment: NCI 60 cell line panel screen (SRB); assay type: cell-based, human
[2] = mean value over the 60 cell line panel

With `CC1CCC2C(C)C(CC(CO)CC3OC4OC5(C)CCC6C(C)CCC(C3C)C46OO5)OC3OC4(C)CCC1C32OO4` (centres unmarked) [Compound 4, bis-trioxane primary alcohol] the Log10GI50 (SK-MEL-28; Melanoma, SK-MEL-28) was −4.95, the Log10LC50 (SK-MEL-28; SK-MEL-28 (Melanoma), LC50: PG=−50) was −4.12 log10M and the Log10TGI50 (SK-MEL-28; SK-MEL-28 (Melanoma), TGI: PG=0) was −4.54 log10M. For the same molecule, the “Log10GI50 Delta” value (60 cell line panel) was 1.13, the “Log10GI50 Range” value (60 cell line panel) was 3.20 and the “Log10LC50 Delta” value (60 cell line panel; 60 cell line panel) was 0.88. For the same molecule, the “Log10LC50 Range” value (60 cell line panel; 60 cell line panel) was 1.14, the “Log10TGI50 Delta” value (60 cell line panel; 60 cell line panel) was 2.31 and the “Log10TGI50 Range” value (60 cell line panel; 60 cell line panel) was 3.18. For the same molecule, the “growth inhibition and cytotoxicity in words” value (60 cell line panel; human cancer cell lines in general) was “strongly inhibitory but not cytotoxic”, the “growth inhibition in words” value (60 cell line panel; leukemia cell line RPM 1-8226, melanoma cell line SK-MEL-5, renal cancer cell line ACHN) was “selectively and strongly inhibitory” and the “Log10GI50 MG MID” value (60 cell line panel; mean over panel) was −6.87. The “Log10LC50 MG MID” value (60 cell line panel; [2]) was −4.26 log10M, the “Log10TGI50 MG MID” value (60 cell line panel; [2]) was −4.87 log10M and the Log10GI50 (RPMI-8226; Leukemia, RPMI-8226) was less than −8.00. The Log10LC50 (RPMI-8226; RPMI-8226 (Leukemia), LC50: PG=−50) was greater than −4.00 log10M, the Log10TGI50 (RPMI-8226; RPMI-8226 (Leukemia), TGI: PG=0) was −6.91 log10M and the Log10LC50 (NCI-H322M; NCI-H322M (Non-Small Cell Lung Cancer), LC50: PG=−50) was −4.29 log10M. For the same molecule, the Log10TGI50 (NCI-H322M; NCI-H322M (Non-Small Cell Lung Cancer), TGI: PG=0) was −4.63 log10M, the Log10GI50 (NCI-H322M; Non-Small Cell Lung Cancer, NCI-H322M) was −4.97 and the Log10GI50 (SF-539; CNS Cancer, SF-539) was −7.05. For the same molecule, the Log10LC50 (SF-539; SF-539 (CNS Cancer), LC50: PG=−50) was −4.34 log10M, the Log10TGI50 (SF-539; SF-539 (CNS Cancer), TGI: PG=0) was −4.72 log10M and the Log10LC50 (PC-3; PC-3 (Prostate Cancer), LC50: PG=−50) was −4.34 log10M. For the same molecule, the Log10TGI50 (PC-3; PC-3 (Prostate Cancer), TGI: PG=0) was −4.89 log10M, the Log10GI50 (PC-3; Prostate Cancer, PC-3) was less than −8.00 and the Log10LC50 (CAKI-1; CAKI-1 (Renal Cancer), LC50: PG=−50) was −4.38 log10M. The Log10TGI50 (CAKI-1; CAKI-1 (Renal Cancer), TGI: PG=0) was −4.84 log10M, the Log10GI50 (CAKI-1; Renal Cancer, CAKI-1) was −7.05 and the Log10GI50 (NCI/ADR-RES; Breast Cancer, NCI/ADR-RES) was −7.45. The Log10LC50 (NCI/ADR-RES; NCI/ADR-RES (Breast Cancer), LC50: PG=−50) was −4.52 log10M, the Log10TGI50 (NCI/ADR-RES; NCI/ADR-RES (Breast Cancer), TGI: PG=0) was −6.41 log10M and the Log10LC50 (RXF 393; RXF 393 (Renal Cancer), LC50: PG=−50) was −4.01 log10M. For the same molecule, the Log10TGI50 (RXF 393; RXF 393 (Renal Cancer), TGI: PG=0) was −4.41 log10M, the Log10GI50 (RXF 393; Renal Cancer, RXF 393) was −4.80 and the Log10LC50 (HOP-62; HOP-62 (Non-Small Cell Lung Cancer), LC50: PG=−50) was −4.20 log10M. The Log10TGI50 (HOP-62; HOP-62 (Non-Small Cell Lung Cancer), TGI: PG=0) was −4.56 log10M, the Log10GI50 (HOP-62; Non-Small Cell Lung Cancer, HOP-62) was −4.92 and the Log10LC50 (IGROVI; IGROVI (Ovarian Cancer), LC50: PG=−50) was −4.32 log10M. For the same molecule, the Log10TGI50 (IGROVI; IGROVI (Ovarian Cancer), TGI: PG=0) was −4.68 log10M, the Log10GI50 (IGROVI; Ovarian Cancer, IGROVI) was −5.36 and the Log10GI50 (HCT-116; Colon Cancer, HCT-116) was less than −8.00. It also gave a Log10LC50 (HCT-116; HCT-116 (Colon Cancer), LC50: PG=−50) of −4.57 log10M, a Log10LC50 (NCI-H460; NCI-H460 (Non-Small Cell Lung Cancer), LC50: PG=−50) of −4.19 log10M and a Log10TGI50 (NCI-H460; NCI-H460 (Non-Small Cell Lung Cancer), TGI: PG=0) of −4.71 log10M. The Log10GI50 (NCI-H460; Non-Small Cell Lung Cancer, NCI-H460) was −7.35, the Log10LC50 (K-562; K-562 (Leukemia), LC50: PG=−50) was greater than −4.00 log10M and the Log10TGI50 (K-562; K-562 (Leukemia), TGI: PG=0) was greater than −4.00 log10M. The Log10GI50 (K-562; Leukemia, K-562) was −7.91, the Log10LC50 (EKVX; EKVX (Non-Small Cell Lung Cancer), LC50: PG=−50) was −4.36 log10M and the Log10TGI50 (EKVX; EKVX (Non-Small Cell Lung Cancer), TGI: PG=0) was −4.77 log10M. The Log10GI50 (EKVX; Non-Small Cell Lung Cancer, EKVX) was −7.12, the Log10LC50 (NCI-H23; NCI-H23 (Non-Small Cell Lung Cancer), LC50: PG=−50) was −4.49 log10M and the Log10GI50 (NCI-H23; Non-Small Cell Lung Cancer, NCI-H23) was −7.84. The Log10LC50 (OVCAR-3; OVCAR-3 (Ovarian Cancer), LC50: PG=−50) was −4.42 log10M, the Log10TGI50 (OVCAR-3; OVCAR-3 (Ovarian Cancer), TGI: PG=0) was −4.92 log10M and the Log10GI50 (OVCAR-3; Ovarian Cancer, OVCAR-3) was −7.68. It also gave a Log10LC50 (ACHN; ACHN (Renal Cancer), LC50: PG=−50) of −4.30 log10M, a Log10TGI50 (ACHN; ACHN (Renal Cancer), TGI: PG=0) of −4.76 log10M and a Log10GI50 (ACHN; Renal Cancer, ACHN) of −7.12. The IC50 [1] was “below one nM”, the “antimalarial potency in vitro relative to artemisinin” value [1] was 10 times and the IC50 ([1]; Table I, NF54 strain, read-out: IC50) was 0.87 nM. For the same molecule, the Log10GI50 (HT29; Colon Cancer, HT29) was −7.75, the Log10LC50 (HT29; HT29 (Colon Cancer), LC50: PG=−50) was greater than −4.00 log10M and the Log10TGI50 (HT29; HT29 (Colon Cancer), TGI: PG=0) was −4.67 log10M. For the same molecule, the Log10GI50 (SNB-75; CNS Cancer, SNB-75) was −4.99, the Log10LC50 (SNB-75; SNB-75 (CNS Cancer), LC50: PG=−50) was −4.12 log10M and the Log10TGI50 (SNB-75; SNB-75 (CNS Cancer), TGI: PG=0) was −4.55 log10M. It also gave a Log10LC50 (T-47D; LC50: PG=−50) of −4.17 log10M, a Log10TGI50 (T-47D; TGI: PG=0) of −4.73 log10M and a Log10GI50 (SNB-19; CNS Cancer, SNB-19) of −4.88. For the same molecule, the Log10LC50 (SNB-19; SNB-19 (CNS Cancer), LC50: PG=−50) was −4.13 log10M, the Log10TGI50 (SNB-19; SNB-19 (CNS Cancer), TGI: PG=0) was −4.50 log10M and the Log10LC50 (OVCAR-8; OVCAR-8 (Ovarian Cancer), LC50: PG=−50) was −4.03 log10M. It also gave a Log10TGI50 (OVCAR-8; OVCAR-8 (Ovarian Cancer), TGI: PG=0) of −4.69 log10M, a Log10GI50 (OVCAR-8; Ovarian Cancer, OVCAR-8) of −7.33 and a Log10LC50 (BT-549; BT-549 (Breast Cancer), LC50: PG=−50) of −4.31 log10M. It also gave a Log10TGI50 (BT-549; BT-549 (Breast Cancer), TGI: PG=0) of −4.73 log10M, a Log10GI50 (BT-549; Breast Cancer, BT-549) of −7.11 and a Log10LC50 (HOP-92; HOP-92 (Non-Small Cell Lung Cancer), LC50: PG=−50) of −4.22 log10M. It also gave a Log10TGI50 (HOP-92; HOP-92 (Non-Small Cell Lung Cancer), TGI: PG=0) of −4.65 log10M, a Log10GI50 (HOP-92; Non-Small Cell Lung Cancer, HOP-92) of −6.37 and a Log10GI50 (SK-OV-3; Ovarian Cancer, SK-OV-3) of −4.85. The Log10LC50 (SK-OV-3; SK-OV-3 (Ovarian Cancer), LC50: PG=−50) was −4.21 log10M, the Log10TGI50 (SK-OV-3; SK-OV-3 (Ovarian Cancer), TGI: PG=0) was −4.53 log10M and the Log10GI50 (UACC-257; Melanoma, UACC-257) was −7.31. The Log10LC50 (UACC-257; UACC-257 (Melanoma), LC50: PG=−50) was −4.30 log10M and the Log10TGI50 (UACC-257; UACC-257 (Melanoma), TGI: PG=0) was −4.71 log10M.
